Results published in patent publication US10052311B2, “PPAR compounds for use in the treatment of fibrotic diseases” (INVENTIVA, priority 2014, dated 2018).
pEC50, pIC50: −log10 of the molar value.

How the values were obtained:
[1] = system: primary human dermal fibroblasts; assay: TGFβ-induced fibroblasts to myofibroblasts transition (FMT), α-SMA immunocytochemistry; format: cell-based; conditions: Fibroblast, α-SMA-positive cells, 48 h, NC: not converged
Experimental: (§1) The ability of compound A to inhibit TGFβ-induced lung and dermal fibroblasts to myofibroblasts transition (FMT) was determined by performing immunocytochemistry assays for the myofibroblast marker, α-smooth muscle actin (α-SMA). These assays were carried out using primary human lung or skin fibroblasts (Promocell). The cells were plated in 96-well plates in full growth medium for 24 h, followed by 24 h starvation in serum-free medium. The medium was then replaced by fresh medium containing TGFβ and compound A to be tested (at concentrations ranging from 10^−4 M to 4.5 10^−8 M) for another 48 h. The culture medium was then removed, the cells were fixed with formaldehyde and stained with a primary mouse α-SMA antibody (Sigma) and secondary fluorescence-labelled goat-anti-mouse antibody (Invitrogen). α-SMA expression was quantified using Meta Xpress software. […] Results were expressed as % of α-SMA-positive cells out of the total cell number. The data was normalised to the TGFβ treatment alone, which was taken as 100%. The results present the mean of biological triplicates. Dose-effect curves and IC50 values were calculated using the GraphPad Prism software.

[2] = system: primary human lung fibroblasts; assay: as above; format: cell-based; conditions: Fibroblast, α-SMA-positive cells, 48 h, NC: not converged
Experimental: as §1

human PPARγ = human PPARγ (Homo sapiens, UniProt P37231); assay: cell-based
human PPARγ, sequence (P37231 238-505 limits assumed): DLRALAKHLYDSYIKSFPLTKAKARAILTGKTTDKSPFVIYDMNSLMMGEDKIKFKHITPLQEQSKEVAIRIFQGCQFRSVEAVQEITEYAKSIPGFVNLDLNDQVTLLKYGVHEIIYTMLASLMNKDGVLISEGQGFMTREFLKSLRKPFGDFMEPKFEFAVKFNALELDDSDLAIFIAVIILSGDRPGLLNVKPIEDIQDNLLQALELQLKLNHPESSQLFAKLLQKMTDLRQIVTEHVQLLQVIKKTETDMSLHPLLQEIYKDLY

mouse PPARδ = biological target: T1, mouse PPARδ (Mus musculus, UniProt P35396); assay: Transient transactivation assay, Cos-7 cells, chimeric PPARδ-Gal4, luciferase reporter; format: cell-based; conditions: Gal4 chimera, mean of 5 experiments, estimated (plateau not reached)
T1 sequence (P35396 210-440 limits assumed): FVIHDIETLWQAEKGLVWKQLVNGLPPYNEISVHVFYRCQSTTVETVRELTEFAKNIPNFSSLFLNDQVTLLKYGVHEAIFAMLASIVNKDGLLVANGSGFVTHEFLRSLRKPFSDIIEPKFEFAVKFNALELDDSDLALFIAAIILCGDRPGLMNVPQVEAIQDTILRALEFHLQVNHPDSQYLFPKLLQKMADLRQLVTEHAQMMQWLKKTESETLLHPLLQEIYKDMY
Experimental: (§2) Transfections were performed by a chemical agent (Jet PEI).

human PPARδ = biological target: T2, human PPARδ (Homo sapiens, UniProt Q03181); assay: as above; format: cell-based; conditions: Gal4 chimera, mean of 6 experiments
T2 sequence (Q03181 211-441 limits assumed): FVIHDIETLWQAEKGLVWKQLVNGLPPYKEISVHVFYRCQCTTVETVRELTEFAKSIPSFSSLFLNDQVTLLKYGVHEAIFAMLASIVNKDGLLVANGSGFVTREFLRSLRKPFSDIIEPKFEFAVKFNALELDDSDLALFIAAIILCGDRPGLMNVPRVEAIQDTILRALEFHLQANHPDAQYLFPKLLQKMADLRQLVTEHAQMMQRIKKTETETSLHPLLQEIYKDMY
Experimental: as §2

[3] = system: primary human dermal fibroblasts; assay: PDGF-induced proliferation, EdU incorporation assay; format: cell-based; conditions: Fibroblast, 24 h, NC: not converged
Experimental: (§3) The ability of compound A to inhibit PDGF-induced lung and dermal fibroblasts proliferation was determined by performing EdU (5-ethynyl-2′-deoxyuridine) incorporation assays. These assays were carried out using primary human lung or skin fibroblasts (Promocell). The cells were plated in 96-well plates in full growth medium for 24 h, followed by 24 h starvation in serum-free medium. The medium was then replaced by fresh medium containing PDGF and compound A to be tested (at concentrations ranging from 10^−4 M to 4.5 10^−8 M) for another 24 h. EdU was added to the cells for the last 16 h of the compound treatment. The culture medium was then removed, the cells were fixed with formaldehyde and the EdU incorporated in the DNA of diving cells was quantified using fluorescent Click-it assay according to the manufacturer's instructions (Invitrogen). […] Results were expressed as % of EdU-positive cells out of the total cell number. The results present the mean of biological triplicates. Dose-effect curves and IC50 values were calculated using the GraphPad Prism software.

[4] = system: primary human lung fibroblasts; assay: as above; format: cell-based; conditions: Fibroblast, 24 h, NC: not converged
Experimental: as §3

- pEC50 (human PPARγ): 6.74
- pEC50 (mouse PPARδ): 5.70
- pEC50 (human PPARδ): 6.28
SMILES: O=C(O)CCCc1cc2cc(Cl)ccc2n1S(=O)(=O)c1ccc2ncsc2c1 [compound A, 5-Chloro-1-[(6-benzothiazolyl)sulfonyl]-1H-indole-2-butanoic acid]
- pIC50 [1]: ~4.95
- pIC50 [2]: 4.97
- pIC50 [3]: 4.94
- pIC50 [4]: 4.96
